Measurements as given in ChEMBL document CHEMBL1201862, “PubChem BioAssay data set” (2004).
The source made the active and inactive calls.

Key:
[1] = molecular target: G-protein coupled receptor 55 (Homo sapiens, UniProt Q9Y2T6); test: GPR55 antagonists blocking LPI-driven arrestin recruitment, primary screen, imaging, U2OS, beta-arrestin-GFP, LPI agonist (AID 2013); format: functional;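 note: antagonist potency measured as reduced agonist-driven arrestin aggregation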
[2] = molecular target: ATP-dependent molecular chaperone HSP82 (Candida albicans (strain WO-1) (Yeast), UniProt C4YTQ8); test: loss of DOC-induced GRE-beta-galactosidase reporter signal, dose response, Hsp90 inhibitor project, S. cerevisiae, luminescence (AID 2400); format: functional, cell-based;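 note: beta-galactosidase luminescence from glucocorticoid response element reporter as proxy for Hsp90 function; inhibitor potency where signal loss means Hsp90 inhibition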
Chain of ATP-dependent molecular chaperone HSP82 (C4YTQ8 whole entry): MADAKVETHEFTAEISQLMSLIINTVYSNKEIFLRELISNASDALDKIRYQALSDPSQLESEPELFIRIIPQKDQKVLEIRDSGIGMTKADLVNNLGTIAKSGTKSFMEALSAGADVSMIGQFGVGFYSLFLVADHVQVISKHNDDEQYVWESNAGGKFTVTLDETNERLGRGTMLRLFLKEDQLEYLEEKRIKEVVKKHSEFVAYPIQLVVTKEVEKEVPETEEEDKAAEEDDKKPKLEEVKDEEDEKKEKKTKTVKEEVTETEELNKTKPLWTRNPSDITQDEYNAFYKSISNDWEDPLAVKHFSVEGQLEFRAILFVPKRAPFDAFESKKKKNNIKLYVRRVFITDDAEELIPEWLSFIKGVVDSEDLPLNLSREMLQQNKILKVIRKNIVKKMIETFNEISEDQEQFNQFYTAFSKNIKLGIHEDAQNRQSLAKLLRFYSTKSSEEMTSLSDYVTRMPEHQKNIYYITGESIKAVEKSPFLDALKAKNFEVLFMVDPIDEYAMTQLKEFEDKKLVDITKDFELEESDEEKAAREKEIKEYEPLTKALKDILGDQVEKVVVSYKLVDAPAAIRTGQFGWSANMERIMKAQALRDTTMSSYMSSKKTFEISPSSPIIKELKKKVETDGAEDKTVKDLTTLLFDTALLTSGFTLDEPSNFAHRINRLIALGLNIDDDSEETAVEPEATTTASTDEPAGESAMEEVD

[3] = C. albicans growth with fluconazole, confirmation, fluorescence, retest (AID 2467); format: functional, cell-based
[4] = NIH-3T3 fibroblast cytotoxicity, dose response, cytotoxicity control, cell-based, fluorescence, Alamar Blue, secondary assay (AID 2327); format: functional;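 note: NIH-3T3 mouse fibroblasts cultured with fluconazole at 8 µg/mL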
[5] = molecular target: T1, Serine/threonine-protein phosphatase (Candida dubliniensis (strain CD36 / CBS 7987 / NCPF 3949 / NRRLY-17841) (Yeast), UniProt B9W6M3); test: calcineurin pathway inhibitors in yeast reporter, dose response, S. cerevisiae, CDRE-lacZ, luminescence, secondary (AID 2388); format: functional, cell-based;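 note: yeast reporter cells carrying a calcineurin-responsive lacZ construct stimulated with calcium chloride; luminescent beta-galactosidase reporter signal in whole cells rather than isolated phosphatase activity; potency for inhibition where a drop in reporter signal means calcineurin blockade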
T1 sequence (B9W6M3 whole entry): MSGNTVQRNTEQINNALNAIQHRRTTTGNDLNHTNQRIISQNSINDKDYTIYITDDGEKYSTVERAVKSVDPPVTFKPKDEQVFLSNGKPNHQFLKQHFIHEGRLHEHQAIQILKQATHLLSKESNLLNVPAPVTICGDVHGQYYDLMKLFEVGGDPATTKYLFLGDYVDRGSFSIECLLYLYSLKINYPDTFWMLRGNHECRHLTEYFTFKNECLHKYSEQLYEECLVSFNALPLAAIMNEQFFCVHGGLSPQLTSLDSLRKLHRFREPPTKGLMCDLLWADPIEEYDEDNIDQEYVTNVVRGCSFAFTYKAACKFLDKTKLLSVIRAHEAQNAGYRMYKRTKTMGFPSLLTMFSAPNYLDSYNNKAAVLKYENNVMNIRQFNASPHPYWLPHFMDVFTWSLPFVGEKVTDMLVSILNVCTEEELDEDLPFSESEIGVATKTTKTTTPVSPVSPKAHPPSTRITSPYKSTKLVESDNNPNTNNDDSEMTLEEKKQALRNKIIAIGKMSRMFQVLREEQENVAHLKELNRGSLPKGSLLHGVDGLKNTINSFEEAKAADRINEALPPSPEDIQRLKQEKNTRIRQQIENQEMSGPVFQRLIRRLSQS

[6] = molecular target: Glyceraldehyde-3-phosphate dehydrogenase (Homo sapiens, UniProt P04406)
Chain of Glyceraldehyde-3-phosphate dehydrogenase (P04406 whole entry): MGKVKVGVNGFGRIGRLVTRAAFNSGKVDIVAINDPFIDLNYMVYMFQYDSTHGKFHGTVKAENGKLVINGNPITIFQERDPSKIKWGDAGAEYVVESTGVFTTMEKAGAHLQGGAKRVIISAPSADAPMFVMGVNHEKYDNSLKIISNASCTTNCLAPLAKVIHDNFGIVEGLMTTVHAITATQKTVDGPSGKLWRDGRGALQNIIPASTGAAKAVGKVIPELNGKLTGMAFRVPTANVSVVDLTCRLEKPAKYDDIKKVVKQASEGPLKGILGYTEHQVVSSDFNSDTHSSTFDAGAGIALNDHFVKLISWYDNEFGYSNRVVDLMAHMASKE

[7] = molecular target: Genome polyprotein (dengue virus type 2, UniProt P29990); test: Dengue-2 NS5 methyltransferase inhibitors, primary screen, biochemical, confirmation dose response (AID 588689); format: functional
Chain of Genome polyprotein (P29990 2492-3391 limits assumed): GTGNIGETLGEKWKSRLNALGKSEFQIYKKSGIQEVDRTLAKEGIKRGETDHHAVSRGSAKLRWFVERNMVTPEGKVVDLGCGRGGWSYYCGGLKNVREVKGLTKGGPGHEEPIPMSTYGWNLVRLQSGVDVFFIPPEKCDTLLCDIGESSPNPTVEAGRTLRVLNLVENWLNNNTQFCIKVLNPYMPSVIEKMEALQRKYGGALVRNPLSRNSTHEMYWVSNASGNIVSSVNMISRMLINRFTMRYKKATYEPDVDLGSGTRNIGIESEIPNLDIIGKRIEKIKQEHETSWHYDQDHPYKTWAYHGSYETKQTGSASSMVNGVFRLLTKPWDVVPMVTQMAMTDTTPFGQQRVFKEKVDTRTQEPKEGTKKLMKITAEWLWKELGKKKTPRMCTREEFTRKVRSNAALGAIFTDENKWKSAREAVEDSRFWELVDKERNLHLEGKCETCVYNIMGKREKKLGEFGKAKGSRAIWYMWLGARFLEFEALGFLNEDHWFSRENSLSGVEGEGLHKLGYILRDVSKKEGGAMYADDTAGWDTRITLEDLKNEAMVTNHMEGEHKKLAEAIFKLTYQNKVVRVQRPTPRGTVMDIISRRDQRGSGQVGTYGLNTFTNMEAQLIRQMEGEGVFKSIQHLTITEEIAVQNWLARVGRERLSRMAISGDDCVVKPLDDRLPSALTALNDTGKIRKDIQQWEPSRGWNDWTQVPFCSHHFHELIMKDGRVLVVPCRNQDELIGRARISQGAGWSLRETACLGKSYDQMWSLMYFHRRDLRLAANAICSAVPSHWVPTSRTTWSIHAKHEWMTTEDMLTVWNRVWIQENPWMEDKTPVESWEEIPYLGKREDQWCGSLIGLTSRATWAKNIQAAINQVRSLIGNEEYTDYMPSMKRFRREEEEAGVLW

[8] = THP-1 cell cytotoxicity, dose response, cytotoxicity control for non-replicating M. tuberculosis project (AID 489025); format: functional
[9] = Vero E6 cell cytotoxicity, dose response, cytotoxicity control for non-replicating M. tuberculosis project, secondary assay (AID 492998); format: functional, VeroE6; conditions: Vero C1008
[10] = cells; format: functional
[11] = molecular target: T2, Protein RecA (Mycobacterium tuberculosis, UniProt P9WHJ3); test: Fluorescence Cell-Free Homogeneous Dose Retest to Identify Inhibitors of RecA-Intein Splicing Activity. [Related pubchem assays (depositor defined):AID2097, AID2223, AID489010, AID492950]; format: functional
T2 sequence (P9WHJ3 whole entry): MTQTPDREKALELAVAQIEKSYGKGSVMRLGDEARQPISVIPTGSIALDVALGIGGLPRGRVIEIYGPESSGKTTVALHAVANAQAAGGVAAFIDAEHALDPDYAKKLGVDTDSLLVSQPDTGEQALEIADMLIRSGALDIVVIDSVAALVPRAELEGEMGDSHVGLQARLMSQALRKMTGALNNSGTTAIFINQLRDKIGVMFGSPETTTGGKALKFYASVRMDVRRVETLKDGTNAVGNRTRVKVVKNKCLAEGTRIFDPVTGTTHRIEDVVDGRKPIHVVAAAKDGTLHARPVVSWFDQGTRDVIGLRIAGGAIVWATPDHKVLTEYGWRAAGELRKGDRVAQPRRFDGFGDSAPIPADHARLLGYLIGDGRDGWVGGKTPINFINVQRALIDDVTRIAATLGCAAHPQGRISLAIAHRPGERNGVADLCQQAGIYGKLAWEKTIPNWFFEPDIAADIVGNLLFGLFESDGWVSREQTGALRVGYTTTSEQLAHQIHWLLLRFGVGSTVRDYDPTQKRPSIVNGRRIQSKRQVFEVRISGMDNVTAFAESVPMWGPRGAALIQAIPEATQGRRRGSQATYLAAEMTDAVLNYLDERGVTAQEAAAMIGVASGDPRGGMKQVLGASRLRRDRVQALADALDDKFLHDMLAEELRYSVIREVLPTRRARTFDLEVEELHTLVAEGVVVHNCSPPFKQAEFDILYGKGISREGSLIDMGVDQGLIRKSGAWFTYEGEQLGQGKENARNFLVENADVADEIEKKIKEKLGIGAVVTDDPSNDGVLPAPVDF

[12] = molecular target: T3, Replicative DNA helicase DnaB (Mycobacterium tuberculosis, UniProt P9WMR3); test: DnaB intein splicing inhibitors, dose response, biochemical, cell-free fluorescence (AID 449749); format: functional
T3 sequence (P9WMR3 whole entry): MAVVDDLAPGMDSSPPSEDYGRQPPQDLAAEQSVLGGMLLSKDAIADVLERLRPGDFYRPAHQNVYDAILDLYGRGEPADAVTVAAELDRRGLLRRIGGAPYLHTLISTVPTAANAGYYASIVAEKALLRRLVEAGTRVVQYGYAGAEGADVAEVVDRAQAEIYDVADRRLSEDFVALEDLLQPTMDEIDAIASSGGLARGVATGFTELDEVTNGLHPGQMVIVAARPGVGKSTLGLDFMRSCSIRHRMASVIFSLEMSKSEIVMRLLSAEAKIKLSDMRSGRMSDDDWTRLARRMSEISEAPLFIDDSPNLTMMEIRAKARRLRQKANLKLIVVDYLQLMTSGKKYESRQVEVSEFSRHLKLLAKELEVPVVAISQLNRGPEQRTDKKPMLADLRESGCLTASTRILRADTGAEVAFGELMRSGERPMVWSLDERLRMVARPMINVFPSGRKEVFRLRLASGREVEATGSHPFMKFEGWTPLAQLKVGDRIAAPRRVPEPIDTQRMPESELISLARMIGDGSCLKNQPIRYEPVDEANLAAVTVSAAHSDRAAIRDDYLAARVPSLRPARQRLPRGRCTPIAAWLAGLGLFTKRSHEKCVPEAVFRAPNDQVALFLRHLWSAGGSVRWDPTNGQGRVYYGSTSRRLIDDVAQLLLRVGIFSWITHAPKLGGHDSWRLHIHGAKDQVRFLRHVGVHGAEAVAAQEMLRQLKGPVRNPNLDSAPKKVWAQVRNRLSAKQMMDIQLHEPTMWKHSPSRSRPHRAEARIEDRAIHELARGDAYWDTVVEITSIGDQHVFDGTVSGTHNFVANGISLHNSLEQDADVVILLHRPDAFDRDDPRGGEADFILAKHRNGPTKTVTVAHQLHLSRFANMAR

[13] = cytotoxicity in HEK-293T cells, dose response, cytotoxicity control for TCR NF-kB inhibitor project, luminescence, T-cell screen hits (AID 489026); format: functional, cell-based;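 note: cells exposed to compound about 14 hours before the viability readout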
[14] = molecular target: T4, Leucine aminopeptidase (Plasmodium falciparum 3D7, UniProt Q8IL11); test: P. falciparum M17LAP inhibitors, primary screen, biochemical, fluorogenic H-Leu-NHMec substrate, 1536-well (AID 1619); format: functional
T4 sequence (Q8IL11 whole entry): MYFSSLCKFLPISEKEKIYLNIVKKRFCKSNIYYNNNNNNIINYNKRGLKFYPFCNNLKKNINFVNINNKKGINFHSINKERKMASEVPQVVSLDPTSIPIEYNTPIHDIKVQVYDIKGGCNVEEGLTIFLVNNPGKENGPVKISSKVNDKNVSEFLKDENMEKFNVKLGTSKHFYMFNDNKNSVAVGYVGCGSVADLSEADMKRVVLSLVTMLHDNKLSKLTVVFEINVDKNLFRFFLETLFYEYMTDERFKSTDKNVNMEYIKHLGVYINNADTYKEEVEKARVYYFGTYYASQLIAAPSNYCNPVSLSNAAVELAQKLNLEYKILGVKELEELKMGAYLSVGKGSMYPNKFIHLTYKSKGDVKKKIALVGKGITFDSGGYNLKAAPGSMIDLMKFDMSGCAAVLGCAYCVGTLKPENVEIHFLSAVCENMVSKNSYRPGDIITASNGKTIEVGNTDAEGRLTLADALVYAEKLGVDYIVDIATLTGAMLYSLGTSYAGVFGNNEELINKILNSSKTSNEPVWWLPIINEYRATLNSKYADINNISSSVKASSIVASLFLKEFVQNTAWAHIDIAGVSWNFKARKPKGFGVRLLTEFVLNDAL

[15] = system: BJ; test: cells; format: functional, cell-based; conditions: Homo sapiens
[16] = system: BJ; test: cytotoxicity toward BJ-TERT-LT-ST fibroblasts, dose response, cell-based, RAS-independent, luminescence (AID 1935); format: functional; conditions: Homo sapiens;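 note: BJ fibroblasts immortalized with TERT plus LT and ST oncogenes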
[17] = HEp-2 cell cytotoxicity, dose response, cytotoxicity control for RSV inhibitor project, HTS (AID 2410); format: functional; conditions: human respiratory syncytial virus
[18] = cytotoxicity toward DRD oncogenic fibroblasts, dose response, cell-based, non-viral oncogenic, luminescence (AID 1934); format: functional; conditions: Homo sapiens
[19] = system: BJ; test: cytotoxicity toward BJ-TERT fibroblasts, dose response, cell-based, RAS-independent, luminescence (AID 1933); format: functional; conditions: Homo sapiens
[20] = molecular target: T5, Carboxy-terminal domain RNA polymerase II polypeptide A small phosphatase 1 (Homo sapiens, UniProt Q9GZU7); test: inhibitors of CTDSP1, concentration-response testing, biochemical assay, absorbance-based, actives from ultra-high-throughput screening (AID 540297); format: functional
T5 sequence (Q9GZU7 whole entry): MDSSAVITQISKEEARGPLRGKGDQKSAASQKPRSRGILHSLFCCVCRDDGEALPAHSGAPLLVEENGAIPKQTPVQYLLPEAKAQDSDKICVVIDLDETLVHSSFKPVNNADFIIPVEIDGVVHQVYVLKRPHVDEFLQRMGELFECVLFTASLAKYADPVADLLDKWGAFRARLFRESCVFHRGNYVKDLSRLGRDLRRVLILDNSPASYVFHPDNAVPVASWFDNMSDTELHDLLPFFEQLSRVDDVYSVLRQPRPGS

[21] = molecular target: Paired box protein Pax-8 (Homo sapiens, UniProt Q06710); test: inhibitors of PAX8-driven TPO luciferase reporter, dose response, RMG-I cells, cherry-pick (AID 687027); format: functional, cell-based;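 note: luciferase reporter driven by Pax8 target thyroperoxidase promoter measured by SteadyGlo luminescence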
[22] = molecular target: T6, Fatty acid synthase (Homo sapiens, UniProt P49327); test: FAS thioesterase domain inhibitors, dose response, biochemical, endpoint fluorescence intensity, uHTS hits (AID 624327); format: functional;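 note: fluorescence from hydrolysis of an O-methyl fluorescein acyl ester substrate by the enzyme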
T6 sequence (P49327 whole entry, the tested form may be a part): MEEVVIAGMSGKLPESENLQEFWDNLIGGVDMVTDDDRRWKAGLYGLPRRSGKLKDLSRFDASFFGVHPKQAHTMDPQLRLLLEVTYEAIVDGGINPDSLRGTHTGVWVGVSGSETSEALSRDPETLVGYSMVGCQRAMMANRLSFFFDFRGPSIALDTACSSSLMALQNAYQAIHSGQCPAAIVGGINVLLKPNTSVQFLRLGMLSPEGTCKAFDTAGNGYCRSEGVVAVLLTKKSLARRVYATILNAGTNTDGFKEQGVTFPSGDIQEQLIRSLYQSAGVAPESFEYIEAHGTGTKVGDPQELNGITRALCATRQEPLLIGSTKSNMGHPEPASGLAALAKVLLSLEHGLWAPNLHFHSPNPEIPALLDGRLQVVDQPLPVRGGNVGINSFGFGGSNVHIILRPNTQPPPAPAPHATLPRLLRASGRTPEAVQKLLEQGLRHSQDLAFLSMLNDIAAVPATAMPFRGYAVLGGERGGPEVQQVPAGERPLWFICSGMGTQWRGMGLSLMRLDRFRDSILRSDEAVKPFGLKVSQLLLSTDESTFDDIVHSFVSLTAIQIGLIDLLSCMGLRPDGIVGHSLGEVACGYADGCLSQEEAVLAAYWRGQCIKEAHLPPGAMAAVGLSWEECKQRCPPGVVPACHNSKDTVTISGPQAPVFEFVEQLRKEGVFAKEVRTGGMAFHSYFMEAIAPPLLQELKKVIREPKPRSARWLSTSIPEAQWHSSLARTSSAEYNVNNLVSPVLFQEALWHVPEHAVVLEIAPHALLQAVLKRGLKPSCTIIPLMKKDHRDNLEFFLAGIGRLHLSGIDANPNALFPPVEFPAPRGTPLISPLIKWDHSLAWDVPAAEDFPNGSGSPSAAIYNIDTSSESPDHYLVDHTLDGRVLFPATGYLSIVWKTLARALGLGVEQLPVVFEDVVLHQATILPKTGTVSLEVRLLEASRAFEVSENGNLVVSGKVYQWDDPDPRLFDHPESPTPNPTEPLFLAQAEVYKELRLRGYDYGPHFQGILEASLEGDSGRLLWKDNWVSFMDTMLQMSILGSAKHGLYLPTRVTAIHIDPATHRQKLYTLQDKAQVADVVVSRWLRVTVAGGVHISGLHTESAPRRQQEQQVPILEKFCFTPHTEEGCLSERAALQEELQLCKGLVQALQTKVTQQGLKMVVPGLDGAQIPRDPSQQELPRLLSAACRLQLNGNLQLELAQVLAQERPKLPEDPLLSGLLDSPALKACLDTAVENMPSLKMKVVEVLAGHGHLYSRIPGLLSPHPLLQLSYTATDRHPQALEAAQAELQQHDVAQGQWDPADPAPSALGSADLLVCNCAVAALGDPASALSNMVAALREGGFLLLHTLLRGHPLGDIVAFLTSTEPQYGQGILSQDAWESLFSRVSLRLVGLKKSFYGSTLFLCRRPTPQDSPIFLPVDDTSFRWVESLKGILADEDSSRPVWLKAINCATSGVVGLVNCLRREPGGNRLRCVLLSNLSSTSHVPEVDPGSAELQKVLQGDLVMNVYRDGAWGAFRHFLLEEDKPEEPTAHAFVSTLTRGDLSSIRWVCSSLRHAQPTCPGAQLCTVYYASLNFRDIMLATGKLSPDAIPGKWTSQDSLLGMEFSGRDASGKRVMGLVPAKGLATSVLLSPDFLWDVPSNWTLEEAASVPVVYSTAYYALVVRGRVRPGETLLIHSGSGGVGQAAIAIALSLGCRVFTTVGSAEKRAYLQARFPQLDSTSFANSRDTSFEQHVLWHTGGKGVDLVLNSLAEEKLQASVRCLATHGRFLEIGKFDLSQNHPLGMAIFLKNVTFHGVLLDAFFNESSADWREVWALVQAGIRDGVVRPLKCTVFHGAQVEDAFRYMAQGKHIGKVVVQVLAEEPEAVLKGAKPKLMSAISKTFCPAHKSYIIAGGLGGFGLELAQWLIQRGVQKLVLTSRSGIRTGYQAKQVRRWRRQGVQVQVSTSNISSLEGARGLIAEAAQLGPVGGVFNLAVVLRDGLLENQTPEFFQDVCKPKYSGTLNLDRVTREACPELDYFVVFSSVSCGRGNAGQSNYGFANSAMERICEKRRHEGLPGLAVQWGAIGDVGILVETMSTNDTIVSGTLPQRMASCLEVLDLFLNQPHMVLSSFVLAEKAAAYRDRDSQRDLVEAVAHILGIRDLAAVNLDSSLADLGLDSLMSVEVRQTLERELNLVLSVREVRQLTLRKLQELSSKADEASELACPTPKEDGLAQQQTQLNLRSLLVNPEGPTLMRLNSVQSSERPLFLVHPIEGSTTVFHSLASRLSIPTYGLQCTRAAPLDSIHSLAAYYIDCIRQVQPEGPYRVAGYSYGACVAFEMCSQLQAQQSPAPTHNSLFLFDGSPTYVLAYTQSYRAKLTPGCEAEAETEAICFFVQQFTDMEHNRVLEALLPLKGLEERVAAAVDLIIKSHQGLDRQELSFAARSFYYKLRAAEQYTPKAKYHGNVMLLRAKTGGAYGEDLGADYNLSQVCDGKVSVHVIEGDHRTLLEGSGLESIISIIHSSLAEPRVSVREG

[23] = molecular target: T6, Fatty acid synthase; test: FAS thioesterase domain inhibitors, dose response, biochemical, kinetic fluorescence intensity (AID 624326); format: functional;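 note: rate of fluorescence rise from hydrolysis of a fluorogenic O-methyl fluorescein ester substrate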

Chain of G-protein coupled receptor 55 (Q9Y2T6 whole entry): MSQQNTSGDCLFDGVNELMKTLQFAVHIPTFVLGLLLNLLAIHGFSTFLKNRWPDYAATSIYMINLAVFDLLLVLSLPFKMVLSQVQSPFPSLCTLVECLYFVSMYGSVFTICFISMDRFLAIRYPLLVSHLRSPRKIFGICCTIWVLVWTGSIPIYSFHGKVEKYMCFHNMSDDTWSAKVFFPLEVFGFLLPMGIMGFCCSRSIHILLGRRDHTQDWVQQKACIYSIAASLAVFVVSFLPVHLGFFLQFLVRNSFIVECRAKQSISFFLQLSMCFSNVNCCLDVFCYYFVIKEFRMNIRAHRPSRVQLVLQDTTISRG

CC(C)c1ccc(NC(=S)NN(c2ccccc2)c2ccccc2)cc1
IC50 [1]: 0.793 µM (active)

COc1ccc(C(=O)N2c3ccccc3C=CC2C#N)cc1 (stereo not drawn)
EC50 [2]: > 150 µM (inactive) | EC50 [3]: 0.186 µM (active) | EC50 [4]: > 160 µM (inconclusive) | EC50 [5]: > 180 µM (inactive)

Cc1ccccc1-n1cnnc1SCC(=O)N1CCN(c2ccccc2)CC1
IC50 [6]: 36.3 µM (active)

Cc1ccc(S(=O)(=O)NN2C(=O)/C(=C/c3cccc(F)c3)SC2=S)cc1
IC50 [7]: 27.2 µM (active)

S=C1SCN(Cc2cccnc2)CN1Cc1ccccc1
CC50 [8]: 15.2 µM (active) | CC50 [9]: 11 µM (active) | IC50 [10]: 18.2 µM (active)

Cc1ccc(N2C(=O)C(Cl)=C(N3CCN(C)CC3)C2=O)c(C)c1
IC50 [7]: 40.5 µM (active) | EC50 [11]: 2.35 µM (active) | AC50 [12]: 8.01 µM (active)

CSC(=Nc1ccc(Br)cc1F)NS(=O)(=O)c1cccs1
EC50 [2]: 18.6 µM (active) | EC50 [3]: 0.239 µM (active) | EC50 [4]: > 150 µM (inactive) | EC50 [5]: > 180 µM (inactive)

O=C(Oc1cc2oc(=O)c3c(c2cc1Cl)CCCC3)c1cccs1
EC50 [2]: 21.4 µM (active) | EC50 [3]: 1.12 µM (active) | EC50 [4]: > 150 µM (inactive) | EC50 [5]: > 180 µM (inactive)

CCN1CCN(C2=C(Cl)C(=O)N(c3ccnc(Cl)c3)C2=O)CC1
IC50 [6]: > 50 µM (inconclusive)

CCOc1ccccc1C(=O)Nc1ccc2nc(N3CCN(c4ncccn4)CC3)cc(C)c2c1
IC50 [13]: > 80 µM (inactive)

N#CC1=C(N)Oc2[nH]nc(-c3ccccc3)c2C1c1cccnc1 (stereo not drawn)
EC50 [11]: 1.79 µM (active) | IC50 [14]: 60.4 µM (active) | AC50 [12]: 6.14 µM (active)

COc1ccc(CN2C(=O)/C(=C/c3ccncc3)SC2=S)cc1
CC50 [8]: 18 µM (active) | EC50 [15]: > 150 µM (inconclusive) | EC50 [16]: > 75 µM (inconclusive) | CC50 [17]: 10.3 µM (active) | CC50 [9]: 7.52 µM (active) | EC50 [18]: 16.9 µM (active) | IC50 [10]: 21.2 µM (active) | EC50 [19]: 13.8 µM (active)

Cc1oc2c(C)c3oc(=O)c(CC(=O)N[C@@H](CC(C)C)C(=O)N[C@@H](Cc4ccccc4)C(=O)O)c(C)c3cc2c1C
IC50 [7]: 72.6 µM (active) | IC50 [20]: 4.59 µM (active)

CSc1ccc(COC(=O)c2cc([N+](=O)[O-])ccc2N2CCOCC2)cc1
EC50 [15]: 1.09 µM (active) | EC50 [16]: 0.385 µM (active) | AC50 [21]: 0.619 µM (active) | IC50 [13]: > 80 µM (inactive) | IC50 [22]: 4.08 µM (active) | IC50 [23]: 3.26 µM (active) | EC50 [18]: 0.653 µM (active) | EC50 [19]: 0.652 µM (inconclusive)

O=C1C2CC=CCC2C(=O)N1c1nc(-c2cccnc2)n[nH]1 (stereo not drawn)
IC50 [6]: > 100 µM (not active)

CCn1c(NC(=O)C2CCCCC2)nc2ccccc21
CC50 [8]: 31.7 µM (active) | CC50 [9]: > 20 µM (active) | IC50 [10]: 1.33 µM (active)
